# Data: patent publication US20240343821A1, “OFATUMUMAB FOR TREATING PEDIATRIC MS” (NOVARTIS AG, priority 2021, published 2024)
# Tests used:
# Format in all cases: in vivo, human
# [1] = Multiple Sclerosis Impact Scale (MSIS-29) under ofatumumab; details: administration of ofatumumab
# Protocol: The MSIS-29 version 2 is a 29-item, self-administered questionnaire that includes 2 domains: physical and psychological. Responses were captured on a 4-point ordinal scale ranging from 1 (not at all) to 4 (extremely), with higher scores reflecting greater impact on day-to-day life. The MSIS-29 takes about 5 minutes to complete and the questions are designed to determine the patient's views about the impact of MS on their day-to-day life during the past 2 weeks. Reference is made to Hobart J and Cano S (2009), “Improving the evaluation of therapeutic interventions in multiple sclerosis: the role of new psychometric methods”, Health Technol Assess; 13(12):iii, ix-x, […] to Hobart J, Lamping D, Fitzpatrick R, et al (2001), “The Multiple Sclerosis Impact Scale (MSIS-29): a new patient-based outcome measure”, Brain; 124(Pt 5):962-73.
# [2] = Ofatumumab half-life at steady state after subcutaneous administration; details: following subcutaneous administration of repeated 20 mg doses
# Protocol: The half-life of ofatumumab at steady state can be approximately 16 days, in particular following subcutaneous administration of repeated 20 mg doses.
# [3] = Immunoglobulin (IgG) levels under long-term ofatumumab therapy; details: in the long run, long-term treatment
# Description: Generally, side effects and adverse events associated with B cell-depleting therapies such as ocrelizumab therapy are reported to be associated with a reduction of immunoglobulins (e.g. IgG).
# [4] = tested on: B cells; assay: B cell depletion under the claimed ofatumumab dosage regimen; details: loading dose weeks 0, 1, 2; maintenance from week 8 every six weeks
# Description: This has been completely surprising because there are significant differences between adult patients and pediatric patients. These differences relate, inter alia, to physiology, metabolism, and body weight. In this context, it is also noted that there is a higher baseline B cell count in children compared to adults and, therefore, it would not have been expected that the claimed dosage regimen is able to consistently deplete B cells in patients as defined in the claims.
substance,measurement,setting,value
Ofatumumab,MS impact scale MSIS-29,[1],advantageous reduction
same,half-life at steady state,[2],approximately 16 days
same,reduction of immunoglobulins (e.g. IgG),[3],does not cause reduction of immunoglobulins
same,depletion of B cells (B cell count threshold),[4],< 8 cells per microliter
